# Measurements taken from US20260022143A1, “Cyclic Peptide Inhibitors of IL-23” (JANSSEN PHARMACEUTICA NV, priority 2022, published 2026).
# Starred links: 1 amine or outer side, 2 acyl side, 3 side chain; linkers in the order of their positions; H or OH if unused. Positions of bridges follow the written chain, without caps; N, C: chain ends. Non-standard residues stand in square brackets, D forms with d. Residues, ends and D or L forms follow the SMILES beside them. *: point of attachment. Trp(7-(3-AcNH-Ph)) = CC(=O)Nc1cccc(-c2cccc3c(C[C@H](N)C(=O)O)c[nH]c23)c1; X13 = C[N+]1(Cc2cn(-c3ccc(C[C@H](N[*:1])C(=O)[*:2])cc3)nn2)CCOCC1; Me3N+(CH2)2O(CH2)2O(CH2)2CO = C[N+](C)(C)CCOCCOCCC(=O)*; Phe(4-N3) = [N-]=[N+]=Nc1ccc(C[C@H](N)C(=O)O)cc1; Trp(7-Me) = Cc1cccc2c(C[C@H](N)C(=O)O)c[nH]c12; 3Oxa8azabicyclo(3.2.1)octane = C1CC2COCC1N2*; X30 = C[N+](C)(C)CCOCCOCCOCCOCc1cn(CC*)nn1; 2Nal = N[C@@H](Cc1ccc2ccccc2c1)C(=O)O; AEF = NCCOc1ccc(C[C@H](N)C(=O)O)cc1; dNMeY = CN[C@H](Cc1ccc(O)cc1)C(=O)O; X10 = C[N+](C)(C)C[C@H](CC(=O)O)N*; 3Pal = N[C@@H](Cc1cccnc1)C(=O)O; Lys(Me) = CNCCCC[C@H](N)C(=O)O; X69 = CN(CCOCC[N+](C)(C)C)CC*; Pen = CC(C)(S)[C@H](N)C(=O)O; αMeK = C[C@](N)(CCCCN)C(=O)O; Thp = NC1(C(=O)O)CCOCC1; X92 = COCC[N+](C)(C)CC*; X3 = C[N+](C)(C)CCCCC*; Sar = CNCC(=O)O
# Assay: Exposed Polar Surface Area (EPSA)
# Format: physicochemical
# Settings: SFC on Chirex 3014 column; sample 1 mM DMSO stock; read-out: EPSA
# Method in brief: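 Chirex 3014 column, 35 °C, 4 mL/min; CO2/MeOH + 20 mM NH4 formate, 5→60% modifier at 20%/min. UV/MS detection. EPSA (Å^2) from retention time vs 8-standard calibration line; duplicates; 1 mM DMSO stock injected undiluted.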
row,Structure (SMILES),EPSA
1,"CC(=O)NCCCC[C@@H]1NC(=O)[C@H](Cc2c[nH]c3c(C)cccc23)NC(=O)[C@H]([C@@H](C)O)NC(=O)[C@H](CC(N)=O)NC(=O)[C@@H](NC(C)=O)C(C)(C)SSC(C)(C)[C@@H](C(=O)N[C@@H](Cc2ccc(OCCN)cc2)C(=O)N[C@@H](Cc2ccc3ccccc3c2)C(=O)N[C@@](C)(CCCCN)C(=O)N[C@H](CCCCNC(C)=O)C(=O)N[C@@H](CC(N)=O)C(=O)N[C@H](CC(C)C)C(=O)N(C)[C@H](Cc2ccc(O)cc2)C(N)=O)NC1=O (racemic) [compound 6, MeCO-Pen(3)-N-T-7MeW-K(Ac)-Pen(3)-AEF-2Nal-aMeK-k(Ac)-N-dL-NMeDTyr-CONH2]",170 A^2
2,"CC(=O)NCCCC[C@@H]1NC(=O)[C@H](Cc2c[nH]c3c(-c4cccc(NC(C)=O)c4)cccc23)NC(=O)[C@H]([C@@H](C)O)NC(=O)[C@H](CC(N)=O)NC(=O)[C@@H](NC(C)=O)C(C)(C)SSC(C)(C)[C@@H](C(=O)N[C@@H](Cc2ccc(OCCCCC[N+](C)(C)C)cc2)C(=O)N[C@@H](Cc2ccc3ccccc3c2)C(=O)NC2(C(=O)N[C@@H](CCCCNC(C)=O)C(=O)N[C@@H](CC(N)=O)C(=O)N[C@@H](Cc3cccnc3)C(=O)N(C)CC(N)=O)CCOCC2)NC1=O [compound 452, MeCO-Pen(3)-N-T-7(3NAcPh)W-K(Ac)-Pen(3)-TMAPF-2Nal-THP-K(Ac)-N-3Pya-Sar-CONH2] (Ac-[Pen]NT[Trp(7-(3-AcNH-Ph))]K(Ac)[Pen]Y(X3)[2Nal][Thp]K(Ac)N[3Pal][Sar]-NH2; disulfide 1-6)",163 A^2
3,CC(=O)NCCCC[C@@H]1NC(=O)[C@H](Cc2c[nH]c3c(C)cccc23)NC(=O)[C@H]([C@@H](C)O)NC(=O)[C@H](CC(N)=O)NC(=O)[C@@H](NC(C)=O)C(C)(C)SSC(C)(C)[C@@H](C(=O)N[C@@H](Cc2ccc(OCCn3cc(COCCOCCOCCOCC[N+](C)(C)C)nn3)cc2)C(=O)N[C@@H](Cc2ccc3ccccc3c2)C(=O)NC2(C(=O)N[C@@H](CCCCNC(C)=O)C(=O)N[C@@H](CC(N)=O)C(=O)N[C@@H](Cc3cccnc3)C(=O)N(C)CC(N)=O)CCOCC2)NC1=O [compound 252] (Ac-[Pen]NT[Trp(7-Me)]K(Ac)[Pen]Y(X30)[2Nal][Thp]K(Ac)N[3Pal][Sar]-NH2; disulfide 1-6),148 A^2
4,CC(=O)NCCCC[C@@H]1NC(=O)[C@H](Cc2c[nH]c3c(C)cccc23)NC(=O)[C@H]([C@@H](C)O)NC(=O)[C@H](CC(N)=O)NC(=O)[C@@H](NC(C)=O)C(C)(C)SSC(C)(C)[C@@H](C(=O)N[C@@H](Cc2ccc(N=[N+]=[N-])cc2)C(=O)N[C@@H](Cc2ccc3ccccc3c2)C(=O)NC2(C(=O)N[C@@H](CCC(=O)O)C(=O)N[C@@H](CC(N)=O)C(=O)N[C@@H](Cc3cccnc3)C(=O)N(C)CC(N)=O)CCOCC2)NC1=O [compound 435] (Ac-[Pen]NT[Trp(7-Me)]K(Ac)[Pen][Phe(4-N3)][2Nal][Thp]EN[3Pal][Sar]-NH2; disulfide 1-6 (inferred)),182 A^2
5,"CC(=O)N(C)CCCC[C@@H]1NC(=O)[C@H](Cc2c[nH]c3c(C)cccc23)NC(=O)[C@H]([C@@H](C)O)NC(=O)[C@H](CC(C)C)NC(=O)[C@@H](NC(=O)CCOCCOCC[N+](C)(C)C)C(C)(C)SSC(C)(C)[C@@H](C(=O)N[C@@H](Cc2ccc(OCCCCC[N+](C)(C)C)cc2)C(=O)N[C@@H](Cc2ccc3ccccc3c2)C(=O)NC2(C(=O)N[C@@H](CCCCN(C)C(C)=O)C(=O)N[C@@H](CC(N)=O)C(=O)N[C@@H](Cc3cccnc3)C(=O)N(C)CC(=O)N(C)C)CCOCC2)NC1=O [compound 495, cPEG3aCO-Pen(3)-1-T-7MeW-K(NMeAc)-Pen(3)-TMAPF-2Nal-THP-K(NMeAc)-N-3Pya-Sar-CON(Me)2] ({Me3N+(CH2)2O(CH2)2O(CH2)2CO}-[Pen]LT[Trp(7-Me)][Lys(Me)](Ac)[Pen]Y(X3)[2Nal][Thp][Lys(Me)](Ac)N[3Pal][Sar]-NMe2; disulfide 1-6)",160 A^2
6,CC(=O)NCCCC[C@@H]1NC(=O)[C@H](Cc2c[nH]c3c(C)cccc23)NC(=O)[C@H]([C@@H](C)O)NC(=O)[C@H](CC(N)=O)NC(=O)[C@@H](NC(C)=O)C(C)(C)SSC(C)(C)[C@@H](C(=O)N[C@@H](Cc2ccc(OCCN)cc2)C(=O)N[C@@H](Cc2ccc3ccccc3c2)C(=O)NC2(C(=O)N[C@@H](CCC(=O)O)C(=O)N[C@@H](CC(N)=O)C(=O)N[C@@H](Cc3cccnc3)C(=O)N(C)CC(=O)N3C4CCC3COC4)CCOCC2)NC1=O [compound 115] (Ac-[Pen]NT[Trp(7-Me)]K(Ac)[Pen][AEF][2Nal][Thp]EN[3Pal][Sar]-{3Oxa8azabicyclo(3.2.1)octane}; disulfide 1-6),171 A^2

# The remaining lines, values ahead:
row,EPSA,Structure (SMILES)
1,167 A^2,CC(=O)NCCCC[C@H](NC(=O)[C@H](CCC(=O)O)NC(=O)C1(NC(=O)[C@H](Cc2ccc3ccccc3c2)NC(=O)[C@H](Cc2ccc(-n3cc(C[N+]4(C)CCOCC4)nn3)cc2)NC(=O)[C@H]2NC(=O)[C@H](CCCCNC(C)=O)NC(=O)[C@H](Cc3c[nH]c4c(C)cccc34)NC(=O)[C@H]([C@@H](C)O)NC(=O)[C@H](CC(N)=O)NC(=O)[C@@H](NC(C)=O)C(C)(C)SSC2(C)C)CCOCC1)C(=O)N[C@@H](Cc1cccnc1)C(=O)N(C)CC(N)=O [compound 460] (Ac-[Pen]NT[Trp(7-Me)]K(Ac)[Pen][X13][2Nal][Thp]EK(Ac)[3Pal][Sar]-NH2; disulfide 1-6)
2,166 A^2,"CC(=O)NCCCC[C@@H]1NC(=O)[C@H](Cc2c[nH]c3c(C)cccc23)NC(=O)[C@H]([C@@H](C)O)NC(=O)[C@H](CC(N)=O)NC(=O)[C@@H](NC(C)=O)C(C)(C)SSC(C)(C)[C@@H](C(=O)N[C@@H](Cc2ccc(OCCN)cc2)C(=O)N[C@@H](Cc2ccc3ccccc3c2)C(=O)N[C@@](C)(CCCCN)C(=O)N[C@@H](CCCCNC(C)=O)C(=O)N[C@@H](CC(N)=O)C(=O)N[C@@H](Cc2cccnc2)C(=O)N(C)[C@H](Cc2ccc(O)cc2)C(N)=O)NC1=O [compound 30, MeCO-Pen(3)-N-T-7MeW-K(Ac)-Pen(3)-AEF-2Nal-aMeK-K(ac)-N-3Pya-NMeDTyr-CONH2] (Ac-[Pen]NT[Trp(7-Me)]K(Ac)[Pen][AEF][2Nal][αMeK]K(Ac)N[3Pal][dNMeY]-NH2; disulfide 1-6)"
3,140 A^2,"CC(=O)N(C)CCCC[C@@H]1NC(=O)[C@H](Cc2c[nH]c3c(C)cccc23)NC(=O)[C@H]([C@@H](C)O)NC(=O)[C@H](CC(=O)N(C)C)NC(=O)[C@@H](NC(=O)CCOCCOCC[N+](C)(C)C)C(C)(C)SSC(C)(C)[C@@H](C(=O)N[C@@H](Cc2ccc(OCCN(C)CCOCC[N+](C)(C)C)cc2)C(=O)N[C@@H](Cc2ccc3ccccc3c2)C(=O)NC2(C(=O)N[C@@H](CCCCN(C)C(C)=O)C(=O)N[C@@H](CC(N)=O)C(=O)N[C@@H](Cc3cccnc3)C(=O)N(C)CC(=O)N(C)C)CCOCC2)NC1=O [compound 237, cPEG3aCO-Pen(3)-N(N(Me)2)-T-7MeW-K(NMeAc)-Pen(3)-AEF(NMePEG2a)-2Nal-THP-K(NMeAc)-N-3Pya-Sar-CON(Me)2] ({Me3N+(CH2)2O(CH2)2O(CH2)2CO}-[Pen]D(NMe2)T[Trp(7-Me)][Lys(Me)](Ac)[Pen]Y(X69)[2Nal][Thp][Lys(Me)](Ac)N[3Pal][Sar]-NMe2; disulfide 1-6)"
4,180 A^2,"CC(=O)NCCCC[C@@H]1NC(=O)[C@H](Cc2c[nH]c3c(-c4cccc(NC(C)=O)c4)cccc23)NC(=O)[C@H]([C@@H](C)O)NC(=O)[C@H](CC(N)=O)NC(=O)[C@@H](NC(C)=O)C(C)(C)SSC(C)(C)[C@@H](C(=O)N[C@@H](Cc2ccc(OCCNC(=N)N)cc2)C(=O)N[C@@H](Cc2ccc3ccccc3c2)C(=O)NC2(C(=O)N[C@@H](CCCCN(C)C(C)=O)C(=O)N[C@@H](CC(N)=O)C(=O)N[C@@H](Cc3cncc(C)c3)C(=O)N(C)CC(N)=O)CCOCC2)NC1=O [compound 482, MeCO-Pen(3)-N-T-7(3NAcPh)W-K(Ac)-Pen(3)-AEF(G)-2Nal-THP-K(NMeAc)-N-5MePyridinAla-Sar-CONH2]"
5,139 A^2,"COCC[N+](C)(C)CCOc1ccc(C[C@H](NC(=O)[C@H]2NC(=O)[C@H](CCCCN(C)C(C)=O)NC(=O)[C@H](Cc3c[nH]c4c(C)cccc34)NC(=O)[C@H]([C@@H](C)O)NC(=O)[C@H](CC(=O)N(C)C)NC(=O)[C@@H](NC(=O)CCOCCOCC[N+](C)(C)C)C(C)(C)SSC2(C)C)C(=O)N[C@@H](Cc2ccc3ccccc3c2)C(=O)NC2(C(=O)N[C@@H](CCCCN(C)C(C)=O)C(=O)N[C@@H](CC(N)=O)C(=O)N[C@@H](Cc3cccnc3)C(=O)N(C)CC(=O)N(C)C)CCOCC2)cc1 [compound 228, cPEG3aCO-Pen(3)-N(N(Me)2)-T-7MeW-K(NMeAc)-Pen(3)-mPEG2TMA2F-2Nal-THP-K(NMeAc)-N-3Pya-Sar-CON(Me)2] ({Me3N+(CH2)2O(CH2)2O(CH2)2CO}-[Pen]D(NMe2)T[Trp(7-Me)][Lys(Me)](Ac)[Pen]Y(X92)[2Nal][Thp][Lys(Me)](Ac)N[3Pal][Sar]-NMe2; disulfide 1-6)"
6,175 A^2,CC(=O)NCCCC[C@@H]1NC(=O)[C@H](Cc2c[nH]c3c(C)cccc23)NC(=O)[C@H]([C@@H](C)O)NC(=O)[C@H](CC(N)=O)NC(=O)[C@@H](NC(C)=O)C(C)(C)SSC(C)(C)[C@@H](C(=O)N[C@@H](Cc2ccc(OCCN)cc2)C(=O)N[C@@H](Cc2ccc3ccccc3c2)C(=O)NC2(C(=O)N[C@@H](CCC(=O)N[C@@H](CC(=O)O)C[N+](C)(C)C)C(=O)N[C@@H](CC(N)=O)C(=O)N[C@@H](Cc3cccnc3)C(=O)N(C)CC(N)=O)CCOCC2)NC1=O [compound 128] (Ac-[Pen]NT[Trp(7-Me)]K(Ac)[Pen][AEF][2Nal][Thp]E(X10)N[3Pal][Sar]-NH2; disulfide 1-6)
7,166 A^2,"CC(=O)NCCCC[C@@H]1NC(=O)[C@H](Cc2c[nH]c3c(C)cccc23)NC(=O)[C@H]([C@@H](C)O)NC(=O)[C@H](CC(N)=O)NC(=O)[C@@H](NC(C)=O)C(C)(C)SSC(C)(C)[C@@H](C(=O)N[C@@H](Cc2ccc(OCC[N+]3(C)CCOCC3)cc2)C(=O)N[C@@H](Cc2ccc3ccccc3c2)C(=O)NC2(C(=O)N[C@@H](CCCCNC(C)=O)C(=O)N[C@@H](CC(N)=O)C(=O)N[C@@H](Cc3cccnc3)C(=O)N(C)CC(N)=O)CCOCC2)NC1=O [compound 562, MeCO-Pen(3)-N-T-7MeW-K(Ac)-Pen(3)-MMoEF-2Nal-THP-K(Ac)-N-3Pya-Sar-CONH2]"
